According to ChEMBL document CHEMBL6096703 (J Med Chem, 2025):
Active and inactive are the calls of the source. No cut-off for these calls is given here.

Tests used:
[1] = Tmax in male Balb/c mouse at 1 mg/kg, po measured upto 96 hrs by LC-MS/MS analysis; format: ADME, organism-based; conditions: in vivo
[2] = biological target: Poly [ADP-ribose] polymerase 1 (Homo sapiens, UniProt P09874); assay: Inhibition of PARP1 (unknown origin) at 1 nM preincubated with compound for 10 mins followed by DNA and NAD+ addition and measured after 60 mins by chemiluminescence based envision reader analysis relative to control; conditions: time 70.0 min
[3] = biological target: Poly [ADP-ribose] polymerase 2 (Homo sapiens, UniProt Q9UGN5); assay: Inhibition of PARP2 (unknown origin) at 1 uM preincubated with compound for 10 mins followed by DNA and NAD+ addition and measured after 60 mins by chemiluminescence based envision reader analysis relative to control; conditions: time 70.0 min
MDA-MB-436 [4] = assay: Antiproliferative activity against human MDA-MB-436 cells assessed as reduction in cell viability incubated for 7 days by CCK-8 assay; format: functional, cell-based; conditions: MDA-MB-436, 168 h
[5] = Cmax in male Balb/c mouse at 1 mg/kg, po measured upto 96 hrs by LC-MS/MS analysis; format: ADME, organism-based; conditions: in vivo
[6] = Half life in male Balb/c mouse at 1 mg/kg, po measured upto 96 hrs by LC-MS/MS analysis; format: ADME, organism-based; conditions: male, Balb/c, in vivo
[7] = Clearance in male Balb/c mouse at 1 mg/kg, po measured upto 96 hrs by LC-MS/MS analysis; format: ADME, organism-based; conditions: male, Balb/c, in vivo
[8] = AUC(0 to t) in male Balb/c mouse at 1 mg/kg, po measured upto 96 hrs by LC-MS/MS analysis; format: ADME, organism-based; conditions: male, Balb/c, in vivo
[9] = Cmax in male Balb/c mouse at 1 mg/kg, iv measured upto 96 hrs by LC-MS/MS analysis; format: ADME, organism-based; conditions: in vivo
[10] = Tmax in male Balb/c mouse at 1 mg/kg, iv measured upto 96 hrs by LC-MS/MS analysis; format: ADME, organism-based; conditions: in vivo
[11] = Half life in male Balb/c mouse at 1 mg/kg, iv measured upto 96 hrs by LC-MS/MS analysis; format: ADME, organism-based; conditions: male, Balb/c, in vivo
[12] = Clearance in male Balb/c mouse at 1 mg/kg, iv measured upto 96 hrs by LC-MS/MS analysis; format: ADME, organism-based; conditions: male, Balb/c, in vivo
[13] = Apparent volume of distribution in male Balb/c mouse at 1 mg/kg, iv measured upto 96 hrs by LC-MS/MS analysis; format: ADME, organism-based; conditions: male, Balb/c, in vivo, read-out: Vz
[14] = Apparent volume of distribution in male Balb/c mouse at 1 mg/kg, po measured upto 96 hrs by LC-MS/MS analysis; format: ADME, organism-based; conditions: in vivo
[15] = AUC(0 to t) in male Balb/c mouse at 1 mg/kg, iv measured upto 96 hrs by LC-MS/MS analysis; format: ADME, organism-based; conditions: male, Balb/c, in vivo
[16] = Oral bioavailability in male Balb/c mouse at 1 mg/kg measured upto 96 hrs by LC-MS/MS analysis; format: ADME, organism-based; conditions: in vivo
[17] = Drug concentration in brain of male Balb/c mouse at 10 mg/kg, po measured at 1 hr postdose; format: ADME, organism-based; conditions: read-out: Ct
[18] = Drug concentration in blood of male Balb/c mouse at 10 mg/kg, po measured at 1 hr postdose; format: ADME, organism-based; conditions: read-out: Ct
[19] = Drug concentration in brain of male Balb/c mouse at 10 mg/kg, po measured at 6 hr postdose; format: ADME, organism-based; conditions: read-out: Ct
[20] = Drug concentration in blood of male Balb/c mouse at 10 mg/kg, po measured at 6 hr postdose; format: ADME, organism-based; conditions: read-out: Ct
MDA-MB-436 [21] = assay: Antitumor activity against human MDA-MB-436 cells xenografted in female NOD/SCID mouse assessed as tumor regression rate at 1 mg/kg, po administered once every other day for 28 days relative to control; format: functional; conditions: time 28.0 day
[22] = Acute toxicity in Kunming mouse assessed as change in heart structure at 300 mg/kg administered via gavage for 14 days by H and E staining based analysis; format: organism-based; conditions: in vivo, po, 336 h, time 14 day
[23] = Acute toxicity in Kunming mouse assessed as change in cellular morphology of heart at 100 mg/kg administered once a day via gavage for 14 days by H and E staining based analysis; format: organism-based; conditions: in vivo, po, 336 h, time 14 day
[24] = Acute toxicity in Kunming mouse assessed as change in liver structure at 300 mg/kg administered via gavage for 14 days by H and E staining based analysis; format: organism-based; conditions: in vivo, po, 336 h, time 14 day
[25] = Acute toxicity in Kunming mouse assessed as change in cellular morphology of liver at 100 mg/kg administered once a day via gavage for 14 days by H and E staining based analysis; format: organism-based; conditions: in vivo, po, 336 h, time 14 day
[26] = Acute toxicity in Kunming mouse assessed as change in spleen structure at 300 mg/kg administered via gavage for 14 days by H and E staining based analysis; format: organism-based; conditions: in vivo, po, 336 h, time 14 day
[27] = Acute toxicity in Kunming mouse assessed as change in cellular morphology of spleen at 100 mg/kg administered once a day via gavage for 14 days by H and E staining based analysis; format: organism-based; conditions: in vivo, po, 336 h, time 14 day
[28] = Acute toxicity in Kunming mouse assessed as change in lung structure at 300 mg/kg administered via gavage for 14 days by H and E staining based analysis; format: organism-based; conditions: in vivo, po, 336 h, time 14 day
[29] = Acute toxicity in Kunming mouse assessed as change in cellular morphology of lung at 100 mg/kg administered once a day via gavage for 14 days by H and E staining based analysis; format: organism-based; conditions: in vivo, po, 336 h, time 14 day
[30] = Acute toxicity in Kunming mouse assessed as change in kidney structure at 300 mg/kg administered via gavage for 14 days by H and E staining based analysis; format: organism-based; conditions: in vivo, po, 336 h, time 14 day
[31] = Acute toxicity in Kunming mouse assessed as change in cellular morphology of kidney at 100 mg/kg administered once a day via gavage for 14 days by H and E staining based analysis; format: organism-based; conditions: in vivo, po, 336 h, time 14 day
[32] = Sub-acute toxicity in Kunming mouse assessed as change ALB2 level at 100 to 300 mg/kg administered via gavage for 14 days; format: organism-based; conditions: in vivo, po, 336 h, dose 100-300 mg/kg, time 14 day
[33] = Sub-acute toxicity in Kunming mouse assessed as change ALTL level at 100 to 300 mg/kg administered via gavage for 14 days; format: organism-based; conditions: in vivo, po, 336 h, dose 100-300 mg/kg, time 14 day
[34] = Sub-acute toxicity in Kunming mouse assessed as change ASTL level at 100 to 300 mg/kg administered via gavage for 14 days; format: organism-based; conditions: in vivo, po, 336 h, dose 100-300 mg/kg, time 14 day
[35] = Sub-acute toxicity in Kunming mouse assessed as change CK level at 100 to 300 mg/kg administered via gavage for 14 days; format: organism-based; conditions: in vivo, po, 336 h, dose 100-300 mg/kg, time 14 day
[36] = Sub-acute toxicity in Kunming mouse assessed as change CREA2 level at 100 to 300 mg/kg administered via gavage for 14 days; format: organism-based; conditions: in vivo, po, 336 h, dose 100-300 mg/kg, time 14 day
[37] = Sub-acute toxicity in Kunming mouse assessed as change LDH2 level at 100 to 300 mg/kg administered via gavage for 14 days; format: organism-based; conditions: in vivo, po, 336 h, dose 100-300 mg/kg, time 14 day
[38] = Sub-acute toxicity in Kunming mouse assessed as change UREAL level at 100 to 300 mg/kg administered via gavage for 14 days; format: organism-based; conditions: in vivo, po, 336 h, dose 100-300 mg/kg, time 14 day
[39] = Sub-acute toxicity in Kunming mouse assessed as change ALB2 level at 30 to 100 mg/kg administered via gavage once a day for 14 days; format: organism-based; conditions: in vivo, po, 336 h, dose 30-100 mg/kg, time 14 day
[40] = Sub-acute toxicity in Kunming mouse assessed as change ALTL level at 30 to 100 mg/kg administered via gavage once a day for 14 days; format: organism-based; conditions: in vivo, po, 336 h, dose 30-100 mg/kg, time 14 day
[41] = Sub-acute toxicity in Kunming mouse assessed as change ASTL level at 30 to 100 mg/kg administered via gavage once a day for 14 days; format: organism-based; conditions: in vivo, po, 336 h, dose 30-100 mg/kg, time 14 day
[42] = Sub-acute toxicity in Kunming mouse assessed as change CK level at 30 to 100 mg/kg administered via gavage once a day for 14 days; format: organism-based; conditions: in vivo, po, 336 h, dose 30-100 mg/kg, time 14 day
[43] = Sub-acute toxicity in Kunming mouse assessed as change CREA2 level at 30 to 100 mg/kg administered via gavage once a day for 14 days; format: organism-based; conditions: in vivo, po, 336 h, dose 30-100 mg/kg, time 14 day
[44] = Sub-acute toxicity in Kunming mouse assessed as change LDH2 level at 30 to 100 mg/kg administered via gavage once a day for 14 days; format: organism-based; conditions: in vivo, po, 336 h, dose 30-100 mg/kg, time 14 day
[45] = Sub-acute toxicity in Kunming mouse assessed as change UREAL level at 30 to 100 mg/kg administered via gavage once a day for 14 days; format: organism-based; conditions: in vivo, po, 336 h, dose 30-100 mg/kg, time 14 day
MDA-MB-436 [46] = assay: Antitumor activity against luciferase tagged human MDA-MB-436 cells xenografted in female NOD-SCID mouse assessed as median survival time at 3 mg/kg, po administered once a day for 34 days; format: functional; conditions: time 34 day

Chain of Poly [ADP-ribose] polymerase 2 (Q9UGN5 whole entry): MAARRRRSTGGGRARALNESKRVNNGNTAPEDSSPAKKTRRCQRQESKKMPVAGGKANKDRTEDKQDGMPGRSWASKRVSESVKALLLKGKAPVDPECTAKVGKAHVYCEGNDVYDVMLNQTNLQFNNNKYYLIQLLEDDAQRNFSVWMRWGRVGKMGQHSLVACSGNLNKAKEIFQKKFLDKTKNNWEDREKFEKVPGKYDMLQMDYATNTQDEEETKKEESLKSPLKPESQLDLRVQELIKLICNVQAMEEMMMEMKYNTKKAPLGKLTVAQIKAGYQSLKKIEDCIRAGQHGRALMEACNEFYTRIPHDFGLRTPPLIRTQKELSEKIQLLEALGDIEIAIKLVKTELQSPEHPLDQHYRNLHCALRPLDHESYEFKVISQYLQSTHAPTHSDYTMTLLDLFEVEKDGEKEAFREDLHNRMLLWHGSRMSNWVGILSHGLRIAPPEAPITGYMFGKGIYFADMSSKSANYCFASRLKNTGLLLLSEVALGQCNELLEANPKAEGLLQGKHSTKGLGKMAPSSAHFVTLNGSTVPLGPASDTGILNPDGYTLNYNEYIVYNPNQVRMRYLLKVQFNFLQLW
Chain of Poly [ADP-ribose] polymerase 1 (P09874 whole entry): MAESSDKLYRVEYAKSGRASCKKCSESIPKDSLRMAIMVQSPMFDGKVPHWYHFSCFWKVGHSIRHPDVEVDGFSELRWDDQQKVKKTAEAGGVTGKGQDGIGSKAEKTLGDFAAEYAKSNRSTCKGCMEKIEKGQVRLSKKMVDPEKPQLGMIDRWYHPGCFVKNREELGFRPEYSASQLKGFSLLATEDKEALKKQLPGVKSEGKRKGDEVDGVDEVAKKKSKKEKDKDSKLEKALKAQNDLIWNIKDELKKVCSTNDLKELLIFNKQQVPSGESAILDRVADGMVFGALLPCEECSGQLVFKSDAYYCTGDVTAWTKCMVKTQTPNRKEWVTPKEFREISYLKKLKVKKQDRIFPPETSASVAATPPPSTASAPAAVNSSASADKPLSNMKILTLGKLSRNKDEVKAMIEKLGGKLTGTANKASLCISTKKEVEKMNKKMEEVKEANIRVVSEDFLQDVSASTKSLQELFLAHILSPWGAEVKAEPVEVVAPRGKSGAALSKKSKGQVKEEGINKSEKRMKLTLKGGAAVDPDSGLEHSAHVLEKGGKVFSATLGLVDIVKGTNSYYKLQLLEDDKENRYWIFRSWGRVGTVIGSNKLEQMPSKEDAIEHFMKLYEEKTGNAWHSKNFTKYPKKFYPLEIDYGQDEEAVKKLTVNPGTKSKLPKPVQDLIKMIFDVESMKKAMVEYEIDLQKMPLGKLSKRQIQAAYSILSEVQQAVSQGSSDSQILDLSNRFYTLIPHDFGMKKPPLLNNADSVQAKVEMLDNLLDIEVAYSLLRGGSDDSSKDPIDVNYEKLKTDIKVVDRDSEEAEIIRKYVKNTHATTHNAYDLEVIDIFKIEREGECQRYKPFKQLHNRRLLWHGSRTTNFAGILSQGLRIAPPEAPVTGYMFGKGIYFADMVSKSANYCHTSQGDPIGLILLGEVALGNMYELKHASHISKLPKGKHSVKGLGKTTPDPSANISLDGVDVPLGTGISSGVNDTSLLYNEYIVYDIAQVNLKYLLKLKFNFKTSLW

Q: For `CNC(=O)c1ccc(N2CCN(Cc3ccc4nc(C)c(=O)[nH]c4c3F)CC2)c(F)n1` [AZD-9574], which Tmax [1] is on record?
A: 0.33 h

Q: And the inhibition [2]?
A: 63.7%

Q: What about the inhibition [3] of the same compound?
A: 38.1%

Q: What about the IC50 (MDA-MB-436 [4]) of the same compound?
A: 6.7 nM

Q: And the Cmax [5]?
A: 594 ng/mL

Q: What about the half-life [6] of the same compound?
A: 8.81 h

Q: What about the CL/F [7] of the same compound?
A: 4 mL/min/kg

Q: And the AUC(0-t) at 96 h [8]?
A: 4180 ng·h/mL

Q: And the Cmax [9]?
A: 941 ng/mL

Q: And the Tmax [10]?
A: 4.8 min

Q: And the half-life [11]?
A: 14.7 h

Q: What about the clearance [12] of the same compound?
A: 3.17 mL/min/kg

Q: What about the Vd [13] of the same compound?
A: 3.64 L/kg

Q: What about the Vz [14] of the same compound?
A: 3.03 L/kg

Q: And the AUC(0-t) at 96 h [15]?
A: 4890 ng·h/mL

Q: And the bioavailability [16]?
A: 85.5%

Q: What about the concentration at 1 h [17] of the same compound?
A: 412 ng/g

Q: And the concentration at 1 h [18]?
A: 3780 ng/mL

Q: And the concentration at 6 h [19]?
A: 48 ng/g

Q: What about the concentration at 6 h [20] of the same compound?
A: 186 ng/mL

Q: And the Activity (MDA-MB-436 [21])?
A: inactive

Q: And the Activity [22]?
A: Non-toxic

Q: And the Activity [23]?
A: Non-toxic

Q: What about the Activity [24] of the same compound?
A: Non-toxic

Q: What about the Activity [25] of the same compound?
A: Non-toxic

Q: What about the Activity [26] of the same compound?
A: Non-toxic

Q: What about the Activity [27] of the same compound?
A: Non-toxic

Q: And the Activity [28]?
A: Non-toxic

Q: What about the Activity [29] of the same compound?
A: Non-toxic

Q: What about the Activity [30] of the same compound?
A: Non-toxic

Q: What about the Activity [31] of the same compound?
A: Non-toxic

Q: What about the Activity [32] of the same compound?
A: Non-toxic

Q: What about the Activity [33] of the same compound?
A: Non-toxic

Q: What about the Activity [34] of the same compound?
A: Non-toxic

Q: And the Activity [35]?
A: Non-toxic

Q: And the Activity [36]?
A: Non-toxic

Q: What about the Activity [37] of the same compound?
A: Non-toxic

Q: What about the Activity [38] of the same compound?
A: Non-toxic

Q: And the Activity [39]?
A: Non-toxic

Q: And the Activity [40]?
A: Non-toxic

Q: And the Activity [41]?
A: Non-toxic

Q: What about the Activity [42] of the same compound?
A: Non-toxic

Q: What about the Activity [43] of the same compound?
A: Non-toxic

Q: What about the Activity [44] of the same compound?
A: Non-toxic

Q: What about the Activity [45] of the same compound?
A: Non-toxic

Q: And the Survival (MDA-MB-436 [46])?
A: >65 days
